Molecular target: human recombinant LRRK2 protein (Homo sapiens (Human), UniProt Q5S007)
Experiment: LRRK2 Kinase Activity Assay (ADP-Glo)
Format: biochemical
Conditions: LRRK2 wt; LRRKtide peptide and ATP substrates; 1h-incubation at 37° C.
Method in brief: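 Recombinant human LRRK2 acted on LRRKtide peptide and ATP for 1 h at 37 °C. ADP formed was detected by ADP-Glo luminescence (ATP depletion, then ADP-to-ATP conversion and luciferase). IC50s came from curve fits over 10 concentrations (N=2).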

Sequence of human recombinant LRRK2 protein (Q5S007 whole entry): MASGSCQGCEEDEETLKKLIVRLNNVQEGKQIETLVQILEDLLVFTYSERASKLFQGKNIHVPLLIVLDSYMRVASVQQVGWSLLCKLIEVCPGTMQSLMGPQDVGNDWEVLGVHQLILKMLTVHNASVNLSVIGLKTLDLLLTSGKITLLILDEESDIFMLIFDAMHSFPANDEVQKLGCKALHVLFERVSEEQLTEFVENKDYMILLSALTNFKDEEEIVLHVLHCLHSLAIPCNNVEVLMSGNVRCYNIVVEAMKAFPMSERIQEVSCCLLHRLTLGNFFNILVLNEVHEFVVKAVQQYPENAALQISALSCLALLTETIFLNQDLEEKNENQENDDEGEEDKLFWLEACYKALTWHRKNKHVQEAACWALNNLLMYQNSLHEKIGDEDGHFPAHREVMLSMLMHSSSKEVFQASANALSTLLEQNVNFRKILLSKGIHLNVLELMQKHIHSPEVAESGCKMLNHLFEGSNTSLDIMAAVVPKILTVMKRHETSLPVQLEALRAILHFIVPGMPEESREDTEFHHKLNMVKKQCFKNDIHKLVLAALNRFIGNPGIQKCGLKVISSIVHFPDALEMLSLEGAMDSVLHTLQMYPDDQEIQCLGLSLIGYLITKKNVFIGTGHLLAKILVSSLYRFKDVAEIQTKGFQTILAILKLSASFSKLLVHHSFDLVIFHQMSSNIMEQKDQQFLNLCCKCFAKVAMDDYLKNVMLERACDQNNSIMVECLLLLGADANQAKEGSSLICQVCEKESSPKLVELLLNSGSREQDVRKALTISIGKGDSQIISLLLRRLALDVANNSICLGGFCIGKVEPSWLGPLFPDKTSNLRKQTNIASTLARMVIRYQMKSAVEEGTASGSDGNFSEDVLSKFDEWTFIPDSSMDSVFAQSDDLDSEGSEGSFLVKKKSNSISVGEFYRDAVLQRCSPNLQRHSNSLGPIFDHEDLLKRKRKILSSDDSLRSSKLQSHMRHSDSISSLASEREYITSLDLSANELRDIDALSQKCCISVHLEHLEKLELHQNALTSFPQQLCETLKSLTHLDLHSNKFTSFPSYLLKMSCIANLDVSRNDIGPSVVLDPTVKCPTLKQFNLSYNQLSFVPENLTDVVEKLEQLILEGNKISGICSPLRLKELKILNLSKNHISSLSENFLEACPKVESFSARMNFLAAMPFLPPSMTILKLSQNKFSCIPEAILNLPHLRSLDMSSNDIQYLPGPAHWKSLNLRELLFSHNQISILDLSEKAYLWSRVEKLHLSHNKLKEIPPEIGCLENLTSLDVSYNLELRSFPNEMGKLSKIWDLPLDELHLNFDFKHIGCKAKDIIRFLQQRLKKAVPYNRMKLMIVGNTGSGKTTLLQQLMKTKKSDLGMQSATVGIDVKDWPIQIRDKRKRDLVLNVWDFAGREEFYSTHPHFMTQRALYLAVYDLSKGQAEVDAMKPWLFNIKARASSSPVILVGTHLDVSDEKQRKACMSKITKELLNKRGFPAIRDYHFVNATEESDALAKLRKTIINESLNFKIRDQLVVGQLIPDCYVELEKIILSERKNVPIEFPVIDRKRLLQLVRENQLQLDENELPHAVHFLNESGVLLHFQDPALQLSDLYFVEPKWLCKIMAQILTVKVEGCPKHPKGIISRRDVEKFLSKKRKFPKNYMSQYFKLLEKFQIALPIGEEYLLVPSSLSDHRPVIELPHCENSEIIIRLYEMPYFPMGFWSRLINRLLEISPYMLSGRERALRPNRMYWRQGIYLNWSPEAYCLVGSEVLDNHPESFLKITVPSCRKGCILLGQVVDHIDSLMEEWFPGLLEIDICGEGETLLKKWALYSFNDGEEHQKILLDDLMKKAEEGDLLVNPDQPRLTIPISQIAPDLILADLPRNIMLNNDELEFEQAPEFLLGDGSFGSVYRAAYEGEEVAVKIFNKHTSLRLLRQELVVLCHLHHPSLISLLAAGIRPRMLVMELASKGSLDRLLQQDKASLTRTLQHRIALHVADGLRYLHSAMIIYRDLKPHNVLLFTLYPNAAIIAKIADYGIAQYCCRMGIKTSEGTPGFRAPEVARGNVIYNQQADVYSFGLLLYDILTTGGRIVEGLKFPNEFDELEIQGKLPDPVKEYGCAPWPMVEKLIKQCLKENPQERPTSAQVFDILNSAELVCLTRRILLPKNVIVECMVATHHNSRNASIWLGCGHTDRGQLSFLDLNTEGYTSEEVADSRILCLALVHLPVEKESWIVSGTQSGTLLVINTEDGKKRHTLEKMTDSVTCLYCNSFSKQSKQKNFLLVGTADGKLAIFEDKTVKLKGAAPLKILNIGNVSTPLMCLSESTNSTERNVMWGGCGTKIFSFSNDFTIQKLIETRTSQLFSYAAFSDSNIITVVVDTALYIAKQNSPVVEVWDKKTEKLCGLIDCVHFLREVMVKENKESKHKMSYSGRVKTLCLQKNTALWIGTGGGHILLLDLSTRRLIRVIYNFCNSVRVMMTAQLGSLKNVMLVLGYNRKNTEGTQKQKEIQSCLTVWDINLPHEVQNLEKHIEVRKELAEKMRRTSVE

IC50 [nM] | SMILES
< 10 | C[C@@H]1CCNC(=O)OCc2cc(ccc2C#N)-c2n[nH]c3ccc(cc23)O1 [Example 128, (13R)-13-methyl-9-oxo-8,14-dioxa-10,19,20-triazatetracyclo[13.5.2.1^2,6. 0^18,21]tricosa-1(20),2,4,6(23),15,17,21-heptaene-5-carbonitrile]
< 10 | O=C1NCCCCc2ccc3[nH]nc(c3c2)-c2cccc(c2)CO1 [Example 142, 8-oxa-10,19,20-triazatetracyclo[13.5.2.1^2,6.0^18,21]tricosa-1(20),2(23),3,5, 15(22),16,18(21)-heptaen-9-one]
10 to 100 | O=C1NCCCOc2ccc3[nH]nc(c3c2)-n2cnc(c2)CCO1 [Example 126, 8,14-dioxa-2,4,10,19,20-pentaazatetracyclo[13.5.2.1^2,5.0^18,21]tricosa-1(20),3,5(23),15(22),16,18(21)-hexaen-9-one]
10 to 100 | C[C@@H]1CCNC(=O)O[C@@H](C)c2cccc(n2)-c2n[nH]c3ccc(cc23)O1 [Example 150, (7S,13R)-7,13-dimethyl-8,14-dioxa-10,19,20,23-tetraazatetracyclo[13.5.2. 1^2,6.0^18,21]tricosa-1(20),2(23),3,5,15(22),16,18(21)-heptaen-9-one]
< 10 | Cc1cc2[nH]nc3c2cc1O[C@H](C)CCNC(=O)OCc1cccc-3c1 [Example 139, (13R)-13,16-dimethyl-8,14-dioxa-10,19,20-triazatetracyclo[13.5.2.1^2,6.0^18,21]tricosa-1(20),2,4,6(23),15,17,21-heptaen-9-one]
< 10 | O=C1NCC(F)(F)COc2ccc3[nH]nc(c3c2)-c2cncc(n2)CO1 [Example 170, 12,12-difluoro-8,14-dioxa-4,10,19,20,23-pentaazatetracyclo[13.5.2.1^2,6.0^18,21]tricosa-1(20),2(23),3,5,15(22),16,18(21)-heptaen-9-one]
< 10 | CC1OC(=O)NCC[C@@H](C)Oc2ccc3[nH]nc(c3c2)-c2ccnc1n2 (single isomer, unassigned) [Example 131, (7R,13R)- or (7S,13R)-7,13-dimethyl-8,14-dioxa-5,10,19,20,23-penta azatetracyclo[13.5.2.1^2,6.0^18,21]tricosa-1(20),2,4,6(23),15,17,21-heptaen-9-one]
100 to 1000 | O=C1NCCCNc2ccc3[nH]nc(c3c2)-c2cccc(c2)CO1 [Example 141, 8-oxa-10,14,19,20-tetraazatetracyclo[13.5.2.1^2,6.0^18,21]tricosa-1(20),2(23), 3,5,15(22),16,18(21)-heptaen-9-one]
< 10 | C[C@@H]1CCNC(=O)OCc2cccc(c2)-c2n[nH]c3ncc(cc23)O1 [Example 165, (13R)-13-methyl-8,14-dioxa-10,17,19,20-tetraazatetracyclo[13.5.2.1^2,6.0^18,21]tricosa-1(20),2(23),3,5,15(22),16,18(21)-heptaen-9-one]
< 10 | O=C1NCC(F)(F)COc2ccc3[nH]nc(c3c2)-c2cccc(c2)CO1 [Example 152, 12,12-difluoro-8,14-dioxa-10,19,20-triazatetracyclo[13.5.2.1^2,6.0^18,21]tricosa-1(20),2(23),3,5,15(22),16,18(21)-heptaen-9-one]
< 10 | C[C@@H]1CCNC(=O)OCc2cccc(n2)-c2n[nH]c3cc(F)c(cc23)O1 [Example 146, (13R)-16-fluoro-13-methyl-8,14-dioxa-10,19,20,23-tetraazatetracyclo[13.5.2.1^2,6.0^18,21]tricosa-1(20),2,4,6(23),15,17,21-heptaen-9-one]

Further lines, the molecule ahead of its results:

SMILES | IC50 [nM]
O=C1NCCCOc2ccc3[nH]nc(c3c2)-c2ccc(N3CCOCC3)c(c2)CO1 [Example 45, 5-(morpholin-4-yl)-8,14-dioxa-10,19,20-triazatetracyclo[13.5.2.1^2,6.0^18,21]tricosa-1(20),2,4,6(23),15,17,21-heptaen-9-one] | < 10
COc1ccc2cc1COC(=O)NCCCOc1ccc3[nH]nc-2c3c1 [Example 19, 5-methoxy-8,14-dioxa-10,19,20-triazatetracyclo[13.5.2.1^2,6.0^18,21]tricosa-1(20),2,4,6(23),15,17,21-heptaen-9-one] | < 10
CN(C)Cc1cc2cc(c1)-c1n[nH]c3ccc(cc13)OCCCNC(=O)OC2 [Example 53, 4-[(dimethylamino)methyl]-8,14-dioxa-10,19,20-triazatetracyclo[13.5.2.1^2,6.0^18,21]tricosa-1(20),2,4,6(23),15,17,21-heptaen-9-one] | 10 to 100
C[C@@H]1CCNC(=O)OCc2cc(Cl)cc(n2)-c2n[nH]c3ccc(cc23)O1 [Example 125, (13R)-4-chloro-13-methyl-8,14-dioxa-10,19,20,23-tetraazatetracyclo[13.5.2.1^2,6.0^18,21]tricosa-1(20),2(23),3,5,15(22),16,18(21)-heptaen-9-one] | < 10
O=C1NCCCOc2ccc3[nH]nc(c3c2)-c2cc(cc(N3CCNCC3)c2)CO1 [Example 81, 4-(piperazin-1-yl)-8,14-dioxa-10,19,20-triazatetracyclo[13.5.2.1^2,6.0^18,21]tricosa-1(20),2(23),3,5,15(22),16,18(21)-heptaen-9-one] | < 10
O=C1NCCCOc2ccc3[nH]nc(c3c2)-c2ccc(C3CC3)c(c2)CO1 [Example 69, 5-cyclopropyl-8,14-dioxa-10,19,20-triazatetracyclo[13.5.2.1^2,6.0^18,21]tricosa-1(20),2,4,6(23),15,17,21-heptaen-9-one] | < 10
O=C1NCCCOc2ccc3[nH]nc(c3c2)-c2cc(cc(N3CCC(N4CCOCC4)CC3)c2)CO1 [Example 38, 4-[4-(morpholin-4-yl)piperidin-1-yl]-8,14-dioxa-10,19,20-triazatetracyclo[13.5.2.1^2,6.0^18,21]tricosa-1(20),2,4,6(23),15,17,21-heptaen-9-one] | < 10
O=C1NCCOc2ccc3[nH]nc(c3c2)-c2cccc(c2)CCO1 [Example 24, 9,14-dioxa-11,19,20-triazatetracyclo[13.5.2.1^2,6.0^18,21]tricosa-1(20),2,4, 6(23),15,17,21-heptaen-10-one] | 10 to 100
C[C@@H]1CCNC(=O)OCCn2cc(cn2)-c2n[nH]c3ccc(cc23)O1 [Example 97, (13R)-13-methyl-8,14-dioxa-4,5,10,19,20-pentaazatetracyclo[13.5.2.1^2,5.0^18,21]tricosa-1(20),2(23),3,15,17,21-hexaen-9-one] | < 10
CCc1cc2nn1CCOC(=O)NCCCOc1ccc3[nH]nc-2c3c1 [Example 122, 4-ethyl-8,14-dioxa-5,10,19,20,23-pentaazatetracyclo[13.5.2.1^2,5.0^18,21]tricosa-1(20),2(23),3,15,17,21-hexaen-9-one] | < 10
O=C1NCCCOc2ccc3[nH]nc(c3c2)-c2cc(cc(C3CCOC3)c2)CO1 (centres unmarked) [Example 61, 4-(oxolan-3-yl)-8,14-dioxa-10,19,20-triazatetracyclo[13.5.2.1^2,6.0^18,21]tricosa-1(20),2,4,6(23),15,17,21-heptaen-9-one] | < 10
C[C@@H]1CCNC(=O)OCc2nccc(n2)-c2n[nH]c3ccc(cc23)O1 [Example 105, (13R)-13-methyl-8,14-dioxa-5,10,19,20,23-pentaazatetracyclo[13.5.2.1^2,6.0^18,21]tricosa-1(20),2,4,6(23),15,17,21-heptaen-9-one] | < 10
CC1CCOc2ccc3[nH]nc(c3c2)-c2cccc(c2)COC(=O)N1 (centres unmarked) [Example 72, 11-methyl-8,14-dioxa-10,19,20-triazatetracyclo[13.5.2.1^2,6.0^18,21]tricosa-1(20),2,4,6(23),15,17,21-heptaen-9-one] | < 10
O=C1NCCCOc2ccc3[nH]nc(c3c2)-c2cc(cc(CN3CCCCC3)c2)CO1 [Example 43] | 10 to 100
O=C1NCCCOc2ccc3[nH]nc(c3c2)-c2cc(cc(C3=CCOC3)c2)CO1 [Example 37, 4-(2,5-dihydrofuran-3-yl)-8,14-dioxa-10,19,20-triazatetracyclo[13.5.2.1^2,6.0^18,21]tricosa-1(20),2,4,6(23),15,17,21-heptaen-9-one] | < 10
CC(C)Oc1cc2cc(c1)-c1n[nH]c3ccc(cc13)OCCCNC(=O)OC2 [Example 55, 4-(propan-2-yloxy)-8,14-dioxa-10,19,20-triazatetracyclo[13.5.2.1^2,6.0^18,21]tricosa-1(20),2,4,6(23),15,17,21-heptaen-9-one] | < 10
CCC1OC(=O)NCCCOc2ccc3[nH]nc(c3c2)-c2cccc1c2 (single isomer, unassigned) [Example 115, (7R)- or (7S)-7-ethyl-8,14-dioxa-10,19,20-triazatetracyclo[13.5.2.1^2,6.0^18,21]tricosa-1(20),2,4,6(23),15,17,21-heptaen-9-one] | 100 to 1000
Cc1c(F)cc2cc1COC(=O)NCCCOc1ccc3[nH]nc-2c3c1 [Example 28, 4-fluoro-5-methyl-8,14-dioxa-10,19,20-triazatetracyclo[13.5.2.1^2,6.0^18,21]tricosa-1(20),2,4,6(23),15,17,21-heptaen-9-one] | < 10
CC1OC(=O)NCCCOc2ccc3[nH]nc(c3c2)-c2cccc1n2 (centres unmarked) [Example 111, 7-methyl-8,14-dioxa-10,19,20,23-tetraazatetracyclo[13.5.2.1^2,6.0^18,21]tricosa-1(20),2,4,6(23),15,17,21-heptaen-9-one] | 10 to 100
O=C1NCCCOc2ccc3[nH]nc(c3c2)-c2ccc(N3CCCC3=O)c(c2)CO1 [Example 75, 5-(2-oxopyrrolidin-1-yl)-8,14-dioxa-10,19,20-triazatetracyclo[13.5.2. 1^2,6.0^18,21]tricosa-1(20),2(23),3,5,15(22),16,18(21)-heptaen-9-one] | < 10
CN1CC=C(c2cc3cc(c2)-c2n[nH]c4ccc(cc24)OCCCNC(=O)OC3)CC1 [Example 39, 4-(1-methyl-1,2,3,6-tetrahydropyridin-4-yl)-8,14-dioxa-10,19,20-triazatetra cyclo[13.5.2.1^2,6.0^18,21]tricosa-1(20),2,4,6(23),15,17,21-heptaen-9-one] | < 10

Reference: patent US20230357269A1 (LES LABORATOIRES SERVIER, priority 2020, published 2023)
